Where two headings read alike, the source gives them in different places.
Columns and labels:
[1] = system: lung adenocarcinoma cell line H441; assay: Cell proliferation (hexosaminidase assay) in lung adenocarcinoma H441 cells, Example 1; assay type: cell-based, human
Protocol: Cell Proliferation Studies: In order to assess the anti-proliferative activity of the synthesized compounds, an in vitro cell culture system of lung adenocarcinoma cell line H441 was used. The cell detachment and anti-proliferative activity was measured as a decrease in hexosaminidase enzyme activity associated with remainder of the adhered cells. [Landegren, 1984] […] The concentration versus cell proliferation plots were analyzed by an exponential fit (Table 1). The results were compared with the anti-proliferative activity of compound 1.
Cell Culture and drug treatment: Human lung adenocarcinoma cell line NCI-H441 (ATCC Number: HTB-174) was obtained from the American Type Culture Collection (Manassas, Va.). H441 cells were maintained at 37° C. with 5% CO2 in McCoy's 5A Medium (Invitrogen, Carlsbad, Calif.) supplemented with 5% heat-inactivated fetal bovine serum (FBS). All media contained gentamicin at 50 μg/ml (GIBCO Laboratories, Grand Island, N.Y.). Other cells lines (PANC-1, MiaPaCa-2 and PC-3) were also similarly maintained, except that the cell culture medium was RPMI 1640 instead of McCoy's.
To evaluate the anti-proliferative activity of synthesized bis(2-fluorobenzylidene)-4-piperidone and its derivatives, the cells were seeded in 96-well flat-bottom tissue culture plates at a density of 10×10^3 cells per well. The cells were allowed to attach and grow overnight. The test compounds were solubilized in dimethyl sulfoxide (DMSO), filtered through 0.2 μm nylon filter and added to cells at 1, 10, 25 and 100 μM concentrations in culture medium supplemented with 5% FBS. The DMSO concentration was maintained at 0.1% per well. Control wells received equivalent volume of DMSO without any test compounds. The cells were allowed to remain in the treatment medium for 24, 48 and 72 hours.
Cell Proliferation: The total number of cells after the treatment period was estimated by the hexosaminidase assay. [Landegren, 1984] Briefly, the medium was removed and hexosaminidase substrate solution in citrate buffer pH 5 (7.5 mM), […] (Calbiochem, San Diego, Calif.) was added at 60 μl per well. The plate was incubated at 37° C. in 100% humidity for 30 minutes, before stopping the reaction with 90 μl of 50 mM glycine containing 5 mM of EDTA (pH 10.4). The absorbance was measured at 405 nm. The experiments were conducted in triplicate, and repeated at least twice. The data were analyzed as percent of control, where the control wells were treated with equivalent amounts of DMSO alone, and the analyzed data was presented as average±standard error of mean. The differences among mean values were deemed significant at p<0.05.
For IC50 calculations, a plot between the drug concentration and hexosaminidase activity was generated and the data was fitted either linearly or exponentially. The best fit was used for further processing of data.

[2] = Homo sapiens, NCI-H441, 24 h of treatment, 1-100 μM tested, fitted plot, read-out: IC50 value
[3] = Homo sapiens, NCI-H441, 24 h of treatment, read-out: IC50 (grouping relative to compound 1)
[4] = 24 h of treatment, 1-100 μM tested, fitted plot, read-out: IC50 value

O=C1C(=Cc2ccccc2)CNCC1=Cc1ccccc1 [Compound 2, 3,5-Bis(benzylidene)-4-piperidone]
IC50 [1, 2]: 12 µM | IC50 [1, 3]: < 30 µM

O=C1C(=Cc2ccccc2Cl)CNCC1=Cc1ccccc1Cl [Compound 3, 3,5-Bis(2-chlorobenzylidene)-4-piperidone]
anti-proliferative activity in words, relative to the comparator named [1]: more anti-proliferative than the 2-fluoro substituted compound 1 | IC50 [1, 2]: 5 µM | IC50 [1, 3]: < 30 µM

O=C1C(=Cc2ccccc2Br)CNCC1=Cc1ccccc1Br [Compound 4, 3,5-Bis(2-bromobenzylidene)-4-piperidone]
IC50 [1, 2]: 6 µM | IC50 [1, 3]: < 30 µM

O=C1C(=Cc2ccccc2[N+](=O)[O-])CNCC1=Cc1ccccc1[N+](=O)[O-] [Compound 5, 3,5-Bis(2-nitrobenzylidene)-4-piperidone]
anti-proliferative activity in words, relative to the comparator named [1]: the activity remained more or less the same | IC50 [1, 2]: 93 µM | IC50 [1, 3]: > 50 µM

O=C1C(=Cc2cccc(Cl)c2)CNCC1=Cc1cccc(Cl)c1 [Compound 6, 3,5-Bis(3-chlorobenzylidene)-4-piperidone]
anti-proliferative activity in words, relative to the comparator named [1]: little change in IC50 as compared to that of compound 1 | IC50 [1, 2]: 50 µM

O=C1C(=Cc2ccc(F)cc2)CNCC1=Cc1ccc(F)cc1 [Compound 7, 3,5-Bis(4-fluorobenzylidene)-4-piperidone]
IC50 [1, 2]: 45.7 µM

O=C1C(=Cc2ccc(Cl)cc2)CNCC1=Cc1ccc(Cl)cc1 [Compound 8, 3,5-Bis(4-chlorobenzylidene)-4-piperidone]
anti-proliferative activity in words, relative to the comparator named [1]: no change in the anti-proliferative activity of 8 compared to that of 7 | IC50 [1, 2]: 87 µM | IC50 [1, 3]: > 50 µM

CN(C)c1ccc(C=C2CNCC(=Cc3ccc(N(C)C)cc3)C2=O)cc1 [Compound 9, 3,5-Bis[4-(N,N-dimethylaminoenzylidene)]-4-piperidone]
IC50 [1, 4]: 101 µM

OC1C(=Cc2ccccc2F)CNCC1=Cc1ccccc1F (stereo not shown) [Compound 10, 3,5-Bis(2-fluorobenzylidene)-4-hydroxy-piperidine]
anti-proliferative activity in words, relative to the comparator named [1]: significantly less anti-proliferative activity as compared to compound 1 | IC50 [1, 2]: 124 µM | IC50 [1, 3]: > 50 µM

O=C1C(Cc2ccccc2F)CNCC1Cc1ccccc1F (stereo not shown) [Compound 11, 3,5-Bis(2-fluorobenzyl)-4-piperidone]
anti-proliferative activity in words, relative to the comparator named [1]: significantly less anti-proliferative activity as compared to compound 1 | IC50 [1, 2]: 130 µM | IC50 [1, 3]: > 50 µM

O=C(O)CCC(=O)N1CC(=Cc2ccccc2F)C(=O)C(=Cc2ccccc2F)C1 [Compound 12]
IC50 [1, 4]: 69 µM

O=C(O)C=CC(=O)N1CC(=Cc2ccccc2F)C(=O)C(=Cc2ccccc2F)C1 [Compound 13, 4-[3,5-Bis-(2-fluorobenzylidene)-4-oxo-piperidin-1-yl]-4-oxo-2-butenoic acid]
anti-proliferative activity in words, relative to the comparator named [1]: significant enhancement in potency | IC50 [1, 2]: 29 µM | IC50 [1, 3]: < 30 µM

O=C(O)COCC(=O)N1CC(=Cc2ccccc2F)C(=O)C(=Cc2ccccc2F)C1 [Compound 14, 2-[3,5-Bis-(2-fluorobenzylidene)-4-oxo-piperidin-1-yl]-2-oxo-ethoxyacetic acid]
anti-proliferative activity in words, relative to the comparator named [1]: less potent as compared to compound 15 | IC50 [1, 2]: 310 µM | IC50 [1, 3]: > 50 µM

O=C(O)CCCC(=O)N1CC(=Cc2ccccc2F)C(=O)C(=Cc2ccccc2F)C1 [Compound 15, 5-[3,5-Bis-(2-fluorobenzylidene)-4-oxo-piperidin-1-yl]-5-oxo-pentanoic acid]
IC50 [1, 2]: 60 µM | IC50 [1, 3]: > 50 µM | melting point: 167 to 168 °C

O=C1C(=Cc2ccccc2F)CN(C(=O)c2ccccc2C(=O)O)CC1=Cc1ccccc1F [Compound 16, 2-[3,5-Bis-(2-fluorobenzylidene)-4-oxo-piperidine-1-carbonyl]-benzoic acid]
anti-proliferative activity in words, relative to the comparator named [1]: very potent analog | IC50 [1, 2]: 56 µM | IC50 [1, 3]: > 50 µM

O=C1C(=Cc2ccccc2F)CN(C(=O)C2CCCCC2C(=O)O)CC1=Cc1ccccc1F (stereo not shown) [Compound 17, 2-[3,5-Bis-(2-fluorobenzylidene)-4-oxo-piperidine-1-carbonyl]-cyclohexanecarboxylic acid]
IC50 [1, 2]: 55 µM | IC50 [1, 3]: > 50 µM | melting point: 96 to 98 °C

O=CN1CC(=Cc2ccccc2F)C(=O)C(=Cc2ccccc2F)C1 [Compound 18, N-Formyl-3,5-bis(2-fluorobenzylidene)-4-piperidone]
anti-proliferative activity in words, relative to the comparator named [1]: performed slightly better than compound 1 | IC50 [1, 2]: 49 µM

CC(=O)N1CC(=Cc2ccccc2F)C(=O)C(=Cc2ccccc2F)C1 [Compound 19, N-Acetyl-3,5-bis(2-fluorobenzylidene)-4-piperidone]
anti-proliferative activity in words, relative to the comparator named [1]: performed slightly better than compound 1 | IC50 [1, 2]: 54 µM | IC50 [1, 3]: > 50 µM

Cc1ccc(S(=O)(=O)N2CC(=Cc3ccccc3F)C(=O)C(=Cc3ccccc3F)C2)cc1 [Compound 20, N-(4-Methylbenzenesulfonyl)-3,5-bis(2-fluorobenzylidene)-4-piperidone]
IC50 [1, 2]: 50 µM | IC50 [1, 3]: > 50 µM | melting point: 162 to 163 °C

O=C(CCC(=O)N1CC(=Cc2ccccc2F)C(=O)C(=Cc2ccccc2F)C1)N[C@H]1C(O)O[C@H](CO)[C@@H](O)[C@@H]1O (stereo partly shown) [Compound 22, 4-Oxo-4-[3,5-bis(2-fluorobenzylidene-4-piperidonylcarbonyl)-2-glucosepropanamide]]
anti-proliferative activity in words, relative to the comparator named [1]: reduced anti-proliferative activity | IC50 [1, 4]: 79 µM

O=C(CN1CC(=Cc2ccccc2F)C(=O)C(=Cc2ccccc2F)C1)NCc1ccc(F)cc1 [Compound 23, 2-[3,5-Bis(2-fluorobenzylidene-4-piperidone-1-yl)-N-(4-fluorobenzyl)acetamide]]
IC50 [1, 4]: 46 µM

CCCCCCCCCCCCCCCCNC(=O)CCC(=O)N1CC(=Cc2ccccc2F)C(=O)C(=Cc2ccccc2F)C1 [Compound 24, 4-[3,5-Bis-(2-fluorobenzylidene)-4-oxo-piperidin-1-yl]-N-hexadecyl-4-oxo-butyramide]
anti-proliferative activity in words, relative to the comparator named [1]: loss of anti-proliferative activity | IC50 [1, 2]: 64 µM | IC50 [1, 3]: > 50 µM

CCCCCCCCCCC=CC(CC(=O)O)C(=O)N1CC(=Cc2ccccc2F)C(=O)C(=Cc2ccccc2F)C1 (stereo not shown) [Compound 26, 3-[3,5-Bis-(2-fluorobenzylidene)-4-oxo-piperidine-1-carbonyl]-pentadec-4-enoic acid]
anti-proliferative activity in words, relative to the comparator named [1]: acceptable anti-proliferative activity | IC50 [1, 2]: 58 µM | IC50 [1, 3]: > 50 µM

CCCCCCCCCCCCC=CC(CC(=O)O)C(=O)N1CC(=Cc2ccccc2F)C(=O)C(=Cc2ccccc2F)C1 (stereo not shown) [Compound 27, 3-[3,5-Bis-(2-fluorobenzylidene)-4-oxo-piperidine-1-carbonyl]-heptadec-4-enoic acid]
anti-proliferative activity in words, relative to the comparator named [1]: acceptable anti-proliferative activity | IC50 [1, 2]: 47 µM

CCCCCCCCCCCCCCCCC=CC(CC(=O)O)C(=O)N1CC(=Cc2ccccc2F)C(=O)C(=Cc2ccccc2F)C1 (stereo not shown) [Compound 28, 3-[3,5-Bis-(2-fluorobenzylidene)-4-oxo-piperidine-1-carbonyl]-heneicos-4-enoic acid]
anti-proliferative activity in words, relative to the comparator named [1]: total loss of activity | IC50 [1, 2]: 84 µM | IC50 [1, 3]: > 50 µM

From US9359196B2, “Antiproliferative compositions comprising curcumin analogs and methods of producing and using same” (The Board of Regents of the University of Oklahoma, priority 2009, dated 2016)
